Patent publication US20230278987A1, “Antimicrobial Compounds and Methods” (Curza Global, LLC, priority 2019, published 2023)
Values after ≈ are worked out from the molar mass of the structure shown. Counter-ions that a name gives are not always drawn.

Tests used:
P.aeruginosa (Pa) = assay: Broth microdilution MIC against P.aeruginosa (Pa); type: cell-based; details: Pseudomonas aeruginosa; CAMHB supplemented with sodium bicarbonate 6.25 mM; read-out: Pa +bicarb 6.25 (MIC)
Procedure: (§1) A certified BSL-2 laboratory was used for testing. Compounds were evaluated using the broth microdilution minimum inhibitory concentration (MIC) and minimum bactericidal concentration (MBC) assays defined by Clinical and Laboratory Standards Institute (CLSI) in the M26-A guideline against S.aureus (Sa), E.coli (Ec), K.pneumoniae (Kp), A.baumannii (Ab), E.faecalis (Ef) and P.aeruginosa (Pa).
(§2) MICs were determined using the Clinical Laboratory and Standards Institute (CLSI) Broth Microdilution Method with slight modification. Clinical and Laboratory Standards Institute (2012). “Methods for dilution antimicrobial susceptibility tests for bacteria that grow aerobically; approved standard, 9th ed. M07-A9. Clinical and Laboratory Standards Institute, Wayne, PA.” Serial two-fold dilutions of compounds are prepared in sterile clear roundbottom 96-well plates.
(§3) To prepare microdilution trays, two-fold dilutions of antimicrobial agent are prepared in growth medium: Cation-Adjusted Mueller-Hinton Broth (CAMHB), or CAMHB supplemented with sodium bicarbonate (6.25 or 25 mM final concentration prepared from a 1.0 M stock solution) or CAMHB supplemented with heat inactivated human serum (Fisher Cat. # BP2657100) 0-50% by adding 200 µL of the highest concentration to be tested (64 µg/mL, for example) in row A, mixing and transferring 100 µL from row A to 100 µL growth medium in row B, then repeating the mixing and transferring through row H of the 96-well plate, discarding the excess 100 µL remaining. This slight modification to the CLSI protocol enables evaluation of MICs for 3 compounds per plate in triplicate, albeit with only 8 compound dilutions (CLSI protocol enables 2 compounds in triplicate with 10 dilutions). Bacterial suspensions are added to a final concentration of 5 × 10^4 CFU/well by adding 5 µL of a 1:10 dilution of a 0.5 McFarland suspension (1 × 10^8 CFU/mL) for each bacterium evaluated. Bacterial suspensions were prepared using the growth method described by CLSI. Well-isolated colonies (3-5 from an agar plate) were selected using a sterile loop and used to inoculate a tube containing 4 mL of CAMHB. The cultures are incubated at 35 ± 2° C. until it achieves or exceeds the turbidity of the 0.5 McFarland standard, determined by measuring A600nm (usually two to six hours). When growth exceeds a 0.5 McFarland standard, the turbidity is adjusted with broth to be equivalent to a 0.5 McFarland standard.

S.aureus (Sa) = assay: Broth microdilution MIC against S.aureus (Sa); type: cell-based; details: Staphylococcus aureus, CAMHB supplemented with sodium bicarbonate 6.25 mM; read-out: Sa + bicarb 6.25 (MIC)
Procedure: as §1, §2, §3

A.baumannii (Ab) = assay: Broth microdilution MIC against A.baumannii (Ab); type: cell-based; details: Acinetobacter baumannii; CAMHB supplemented with sodium bicarbonate 6.25 mM; read-out: Ab +bicarb 6.25 (MIC)
Procedure: as §1, §2, §3

[1] = biological target: Rabbit Reticulocyte Lysate (eukaryotic protein synthesis); assay: Rabbit Reticulocyte Lysate: inhibition of eukaryotic protein synthesis (luciferase); type: biochemical; details: 30° C. for 90 minutes, read-out: retic. IC50
Procedure: Inhibition of eukaryotic protein synthesis was determined using the Rabbit Reticulocyte Lysate System, Nuclease-Treated from Promega (catalog #L-4960) with slight modifications to the manufacturer’s protocol. Compounds were serial diluted in 0.5 mL microcentrifuge tubes by mixing and transferring 50 µL from the highest concentration to 50 µL of water, mixing and transferring 50 µL of this 2-fold dilution to 50 µL of water. This mixing and transferring was repeated so that there are a total of 8 tubes with serial dilutions of compound at 10× the desired screening concentration that are ultimately diluted to 1× by the addition of rabbit reticulocyte luciferase synthesis mixture. Serial dilutions of compounds were added (2.5 µL) to wells in a black round bottom 96-well plate. Water (2.5 µL) was used as a “no inhibitor” control in 4 wells/plate. No RNA control reaction mixture (2 µL; see below) was used as a control in 4 wells/plate for background luminescence. Rabbit reticulocyte luciferase synthesis mixture (22.5 µL; see below) was added to wells with compounds or water mixture and incubated at 30° C. for 90 minutes. Luciferase assay reagent (25 µL) was added with luminescence measured using a BioTek Synergy HTX plate reader. % Inhibition was determined relative to no inhibitor controls.
Rabbit reticulocyte luciferase synthesis mixture: • 1,000 µL rabbit reticulocyte lysate • 5.7 µL Luciferase Control RNA (1 µg/ µL) • 26 µL complete amino acid mixture • 395 µL water
No RNA Control • 70 µL rabbit reticulocyte lysate • 2 µL complete amino acid mixture • 28 µL water

E.coli (Ec) = assay: Broth microdilution MIC against E.coli (Ec); type: cell-based; details: Escherichia coli; CAMHB supplemented with sodium bicarbonate 6.25 mM; read-out: E. coli + bicarb 6.25 (MIC)
Procedure: as §1, §2, §3

E.faecalis (Ef) = assay: Broth microdilution MIC against E.faecalis (Ef); type: cell-based; details: Enterococcus faecalis, CAMHB supplemented with sodium bicarbonate 6.25 mM; read-out: Ef +bicarb 6.25 (MIC)
Procedure: as §1, §2, §3

[2] = system: E.coli S30 extract (bacterial protein synthesis); assay: E.coli S30 extract: inhibition of bacterial protein synthesis (luciferase); type: biochemical; details: 37° C. for 1 hour
Procedure: E.coli S30 extract: Inhibition of bacterial protein synthesis was determined using the E.coli S30 Extract System for Circular DNA (Promega catalog #L-2010) and Luciferase Assay Reagent (Promega catalog #E1500) with slight modifications to a published protocol. Fyfe, C., Sutcliffe, J.A. and Grossman, T.H. (2012) “Development and characterization of a Pseudomonas aeruginosa in vitro coupled transcription-translation assay system for evaluation of translation inhibitors” J. Microbiol. Methods 90(3), 256-261.
Compounds were serial diluted in 0.5 mL microcentrifuge tubes by mixing and transferring 50 µL from the highest concentration to 50 µL of water, mixing and transferring 50 µL of this 2-fold dilution to 50 µL of water. This mixing and transferring was repeated so that there are a total of 8 tubes with serial dilutions of compound at 10× the desired screening concentration that are ultimately diluted to 1× by the addition of S30 luciferase synthesis mixture. Serial dilutions of compounds were added (2 µL) to wells in a black round bottom 96-well plate. Water (2 µL) was used as a “no inhibitor” control in 4 wells/plate. No DNA control reaction mixture (20 µL; see below) was used as a control in 4 wells/plate for background luminescence. S30 luciferase synthesis mixture (18 µL; see below) was added to wells with compounds or water mixture and incubated at 37° C. for 1 hour. Reactions were stopped by transferring to 4° C. refrigerator for 5 minutes then 25 µL of luciferase activity mix was added. Luminescence was measured using a BioTek Synergy HTX plate reader. % Inhibition was determined relative to no inhibitor controls.
S30 luciferase synthesis mixture: • 445 µL S30 extract, circular • 712 µL S30 Premix without amino acids • 4.45 µL pBESTluc™ DNA (1 µg/ µL) • 78 µL complete amino acid mixture • 267 µL water
No DNA control: • 20 µL S30 extract, circular • 32 µL S30 Premix without amino acids • 7 µL complete amino acid mixture • 21 µL water

| Compound | MIC (P.aeruginosa (Pa)) [µg/mL] | MIC (S.aureus (Sa)) [µg/mL] | MIC (A.baumannii (Ab)) [µg/mL] | IC50 [1] [nM] | MIC (E.coli (Ec)) [µg/mL] | MIC (E.faecalis (Ef)) [µg/mL] | IC50 [2] [nM] |
| --- | --- | --- | --- | --- | --- | --- | --- |
| CC(C)(N)C(=O)N1CCN(C(=O)Nc2ccn(-c3ccc4c(c3)CCC(N[C@H]3C[C@H](N)C3)C4)c(=O)n2)CC1 (stereo partly shown) [Compound 29] | > 32 | < 8 | > 32 | ≥ 1000 | < 8 | 8 to 32 (≈ 15.3 to 61.2 µM) | < 500 |
| CC(C)(N)C(=O)N1CCN(C(=O)Nc2ccn(-c3ccc4c(c3)CCC(N[C@H]3C[C@@H](N)C3)C4)c(=O)n2)CC1 (stereo partly drawn) [Compound 30, 4-Amino-2-Methylpropanoyl)-N-(1-(6-(((Cis-3-Aminocyclobutyl)Amino)-5,6,7,8-Tetrahydronaphthalen-2-Yl)-2-Oxo-1,2-Dihydropyrimidin-4-Yl)Piperazine-1-Carboxamide Hydrochloride Salt] | > 32 | < 8 | > 32 | ≥ 1000 | < 8 | 8 to 32 | < 500 |
| CC(C)(N)C(=O)N1CCN(C(=O)Nc2ccn(-c3ccc4c(c3)CCC(NC[C@H]3C[C@H](N)C3)C4)c(=O)n2)CC1 (stereo partly shown) [Compound 31] | > 32 | < 8 | > 32 | ≥ 1000 | < 8 | 8 to 32 (≈ 14.9 to 59.6 µM) | < 500 |
| CC(C)(N)C(=O)N1CCN(C(=O)Nc2ccn(-c3ccc4c(c3)CCC(NC[C@H]3C[C@@H](N)C3)C4)c(=O)n2)CC1 (stereo partly shown) [Compound 32] | > 32 | < 8 | > 32 | ≥ 1000 | < 8 | 8 to 32 (≈ 14.9 to 59.6 µM) | < 500 |
| CC(C)(N)C(=O)N1CCN(C(=O)Nc2ccn(-c3ccc4c(c3)CCN(C3CCC(N)CC3)C4)c(=O)n2)CC1 (stereo not shown) [Compound 35] | > 32 | < 8 | > 32 | ≥ 1000 | < 8 | > 32 | < 500 |
| CC(C)(N)C(=O)N1CCN(C(=O)Nc2ccn(-c3ccc4c(c3)CC(N[C@H]3CC[C@H](N)C3)C4)c(=O)n2)CC1 (stereo partly shown) [Compound 36, Hydrochloride Salt] | > 32 | 8 to 32 | > 32 | < 500 | < 8 | > 32 | < 500 |
| CC(C)(N)C(=O)N1CCN(C(=O)Nc2ccn(-c3ccc4c(c3)CC(NC[C@H]3C[C@H](N)C3)C4)c(=O)n2)CC1 (stereo partly shown) [Compound 37, Hydrochloride Salt] | > 32 | 8 to 32 | > 32 | ≥ 1000 | < 8 | > 32 | < 500 |
